Laboratory results as given in PMC9356275, “A quantitative high-throughput screen identifies compounds that lower expression of the SCA2-and ALS-associated gene ATXN2” (The Journal of Biological Chemistry, 2022).

Assays:
[1] = test system: BAC ATXN2-Q22 mice; assay: Survival / tolerability of treated BAC ATXN2-Q22 mice; type: in vivo, mouse; settings: 4 mg/kg intraperitoneal, every other day over 10 days, n = 4
From the text: Our study identified 11 compounds known to inhibit HSP90, including one that was identified in our original pilot screen. […] 17-DMAG inhibited transcription of ATXN2 in HEK-293 cells in a dose-dependent manner and reduced the abundance of endogenous and mutant ATXN2 proteins in HEK-293 cells (Figs. 3 and 4). […] Toxicity was evident in our in vivo experiment as well. […] However, like for 17-DMAG, BAC ATXN2-Q22 mice treated with HSP990 had 80% reduced ATXN2 protein abundance in the cerebellum (Fig. 5B).
(§1) Control-treated mice included vehicle alone.

[2] = test system: ATXN2 protein; assay: Cerebellar ATXN2 protein by Western blotting in BAC ATXN2-Q22 mice; type: in vivo, mouse; settings: 4 mg/kg intraperitoneal, every other day over 10 days
From the text: Figure 5 Effect of HSP90 inhibitors on ATXN2 cerebellar expression in vivo in BAC ATXN2-Q22 mice. Inhibition of ATXN2 expression by 17-DMAG (A) and HSP990 (B) versus vehicle controls. Mouse ID numbers are shown above the lanes. Western blot analysis showing upregulation of HSP70 expression following 17-DMAG treatment, which indicates successful HSP90 target engagement. The human transgenic ATXN2 protein is indicated as ATXN2-Q22 and the endogenous mouse protein as mATXN2. Values shown are mean and SD. Probabilities are from Student’s t tests: ∗p < 0.05; ∗∗∗p < 0.001. Three blots were quantified. ATXN2, ataxin-2; BAC, bacterial artificial chromosome; 17-DMAG, 17-dimethylaminoethylamino-17-demethoxygeldanamycin; HSP, heat shock protein.
as §1
Proteins were prepared, separated on precast polyacrylamide gels (Bio-Rad), transferred to Hybond (Amersham), and detected by enhanced chemiluminescence (Amersham) as previously described ([12], [27]). […]

[3] = test system: ATXN2 mRNA; assay: Cerebellar ATXN2 mRNA by qPCR in BAC ATXN2-Q22 mice; settings: 4 mg/kg intraperitoneal, every other day over 10 days
[4] = set-up: method as in PMID 25625276; settings: ref [41]; cited from earlier work

COc1cccc(-c2cc(F)ccc2[C@H]2Cc3nc(N)nc(C)c3C(=O)N2)n1 [HSP990]
Survival of treated mice [1]: half of the mice we treated with HSP990 did not survive treatment | Reduced ATXN2 protein abundance in the cerebellum [2]: 80% | Reduced ATXN2 mRNA abundance in cerebella [3]: 20% | ATXN2 mRNA abundance in cerebella ([3]; […]): 78.54 ± 3.9% | Toxicity in clinical trial [4]: dose-limiting neurotoxicity
